What was measured:
oval-leafed pondweed [1] = assay: Test Example 2: herbicidal activity, application during weed generation under submerged conditions (Table 17, symbol C); format: in vivo, oval-leafed pondweed (Monochoria vaginalis); conditions: AAH 320 g/ha; application during weed generation, submerged conditions
In short: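 Steps: fill Wagner pots with alluvial soil; add water to give 4 cm depth; sow the species mixed; grow under glass at 25–30° C.; at 1–2 leaves apply water-diluted emulsion formulation to the water surface at a fixed herbicide amount; score after 3 weeks.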

green foxtail [2] = assay: Test Example 5: herbicidal effect by foliage application, plastic box (Table 20, symbol G); format: in vivo, green foxtail (Setaria viridis); conditions: foliage application, 320 g/ha, three weeks after application
In short: (§1)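 Sow seeds spot-wise in sterilized diluvial soil; cover with ~1.5 cm soil. Grow 14 days in greenhouse, 25° C. to 30° C. Spray foliage with emulsion diluted to predetermined amount. Rate effect after 3 weeks.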

oval-leafed pondweed [3] = assay: Test Example 1: herbicidal activity, application before weed generation under submerged conditions (Table 16, symbol C); format: in vivo, oval-leafed pondweed (Monochoria vaginalis); conditions: 320 g/ha applied herbicide
In short: (§2)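 Emulsion formulation, water-diluted to set dose, was put onto the flooded surface (4 cm depth, alluvial soil) the same day weeds were sown and 2.5-leaf rice transplanted. After 3 weeks at 25-30 °C under glass, each species was rated 0 (≤5% kill) to 5 (≥90% kill).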

chickweed [4] = assay: Test Example 4: herbicidal effect by soil treatment (Table 19, symbol P); format: in vivo, common chickweed (Stellaria media); conditions: amount of applied herbicide 320 g/ha
In short: (§3)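 Applied as a water-diluted emulsion, the compound was sprayed onto soil covering newly sown seeds. Evaluation came three weeks after application, in a greenhouse held at 25° C. to 30° C.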

blackgrass = assay: Test Example 5: herbicidal effect by foliage application, plastic box (Table 20, symbol J); format: in vivo, blackgrass (Alopecurus myosuroides); conditions: foliage application, 320 g/ha, three weeks after application
In short: as §1

wild oat [5] = assay: Test Example 4: herbicidal effect by soil treatment (Table 19, symbol I); format: in vivo, wild oat (Avena fatua); conditions: amount of applied herbicide 320 g/ha
In short: as §3

velvetleaf = assay: Test Example 5: herbicidal effect by foliage application, plastic box (Table 20, symbol M); format: in vivo, velvetleaf (Abutilon theophrasti); conditions: foliage application, 320 g/ha, three weeks after application
In short: as §1

barnyard grass [6] = assay: Test Example 5: herbicidal effect by foliage application, plastic box (Table 20, symbol H); format: in vivo, barnyard grass (Echinochloa crus-galli); conditions: foliage application, 320 g/ha, three weeks after application
In short: as §1

redroot pigweed [7] = assay: Test Example 5: herbicidal effect by foliage application, plastic box (Table 20, symbol N); format: in vivo, redroot pigweed (Amaranthus retroflexus); conditions: foliage application, 320 g/ha, three weeks after application
In short: as §1

wild oat [8] = assay: Test Example 5: herbicidal effect by foliage application, plastic box (Table 20, symbol I); format: in vivo, wild oat (Avena fatua); conditions: foliage application, 320 g/ha, three weeks after application
In short: as §1

barnyard grass [9] = assay: Test Example 4: herbicidal effect by soil treatment (Table 19, symbol H); format: in vivo, barnyard grass (Echinochloa crus-galli); conditions: amount of applied herbicide 320 g/ha
In short: as §3

rice flat sedge = assay: Test Example 3: herbicidal effect by foliage application, Wagner pot (Table 18, symbol E); format: in vivo, rice flat sedge (Cyperus iria); conditions: 320 g/ha
In short: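 Plants were sown in alluvial soil held under 0.1–0.5 cm standing water and grown 14 days in a greenhouse at 25–30 °C. An emulsifiable formulation, water-diluted to the set dose, was then sprayed onto the foliage, and effects were scored three weeks later using previously defined criteria.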

chickweed [10] = assay: Test Example 5: herbicidal effect by foliage application, plastic box (Table 20, symbol P); format: in vivo, common chickweed (Stellaria media); conditions: foliage application, 320 g/ha, three weeks after application
In short: as §1

Japanese bulrush = assay: Test Example 1: herbicidal activity, application before weed generation under submerged conditions (Table 16, symbol B); format: in vivo, Japanese bulrush (Schoenoplectus juncoides); conditions: 320 g/ha applied herbicide
In short: as §2

green foxtail [11] = assay: Test Example 4: herbicidal effect by soil treatment (Table 19, symbol G); format: in vivo, green foxtail (Setaria viridis); conditions: amount of applied herbicide 320 g/ha
In short: as §3

redroot pigweed [12] = assay: Test Example 4: herbicidal effect by soil treatment (Table 19, symbol N); format: in vivo, redroot pigweed (Amaranthus retroflexus); conditions: amount of applied herbicide 320 g/ha
In short: as §3

Row | Compound | herbicidal effect rating, C: oval-leafed pondweed (oval-leafed pondweed [1]) | herbicidal effect grade, G: green foxtail (green foxtail [2]) | Herbicidal effect on C: oval-leafed pondweed (grade 0-5) (oval-leafed pondweed [3]) | herbicidal effect rating, P: chickweed (chickweed [4]) | herbicidal effect grade, J: blackgrass (blackgrass) | herbicidal effect rating, I: wild oat (wild oat [5]) | herbicidal effect grade, M: velvetleaf (velvetleaf) | herbicidal effect grade, H: barnyard grass (barnyard grass [6]) | herbicidal effect grade, N: redroot pigweed (redroot pigweed [7]) | herbicidal effect grade, I: wild oat (wild oat [8]) | herbicidal effect rating, H: barnyard grass (barnyard grass [9]) | herbicidal effect on E (rice flat sedge), rating 0-5 (rice flat sedge) | herbicidal effect grade, P: chickweed (chickweed [10]) | Herbicidal effect on B: Japanese bulrush (grade 0-5) (Japanese bulrush) | herbicidal effect rating, G: green foxtail (green foxtail [11]) | herbicidal effect rating, N: redroot pigweed (redroot pigweed [12])
1 | CCCCOc1ccc(-c2sc3ccccc3c2-c2c(O)c(C)nn(C)c2=O)cc1 [1-024] | 5 (Herbicidal rate of 90% or more (almost completely withered)) | 5 (Herbicidal rate of 90% or more (almost completely withered)) | 5 (Herbicidal rate of 90% or more (almost completely withered)) | 4 (Herbicidal rate of 70% or more and less than 90%) | 4 (Herbicidal rate of 70% or more and less than 90%) | 0 (Herbicidal rate of 5% or less (almost no effect)) | 5 (Herbicidal rate of 90% or more (almost completely withered)) | 5 (Herbicidal rate of 90% or more (almost completely withered)) | 5 (Herbicidal rate of 90% or more (almost completely withered)) | 4 (Herbicidal rate of 70% or more and less than 90%) | 3 (Herbicidal rate of 40% or more and less than 70%) | 5 (Herbicidal rate of 90% or more (almost completely withered)) | 5 (Herbicidal rate of 90% or more (almost completely withered)) | 5 (Herbicidal rate of 90% or more (almost completely withered)) | 0 (Herbicidal rate of 5% or less (almost no effect)) | 4 (Herbicidal rate of 70% or more and less than 90%)
2 | Cc1nn(C)c(=O)c(-c2c(-c3ccc4c(c3)OCO4)sc3ccccc23)c1O [1-087] | 3 (Herbicidal rate of 40% or more and less than 70%) | 5 (Herbicidal rate of 90% or more (almost completely withered)) | 0 (Herbicidal rate of 5% or less (almost no effect)) | 5 (Herbicidal rate of 90% or more (almost completely withered)) | 3 (Herbicidal rate of 40% or more and less than 70%) | 0 (Herbicidal rate of 5% or less (almost no effect)) | 4 (Herbicidal rate of 70% or more and less than 90%) | 4 (Herbicidal rate of 70% or more and less than 90%) | 5 (Herbicidal rate of 90% or more (almost completely withered)) | 1 (Herbicidal rate of 5% or more and less than 20%) | 4 (Herbicidal rate of 70% or more and less than 90%) | 5 (Herbicidal rate of 90% or more (almost completely withered)) | 5 (Herbicidal rate of 90% or more (almost completely withered)) | 1 (Herbicidal rate of 5% or more and less than 20%) | 5 (Herbicidal rate of 90% or more (almost completely withered)) | 5 (Herbicidal rate of 90% or more (almost completely withered))

From US20230085307A1, “PYRIDAZINONE COMPOUND AND HERBICIDE” (NISSAN CHEMICAL CORPORATION, priority 2019, published 2023)
